What was measured:
Rattus norvegicus [1] = species: Rattus norvegicus; assay: Dose required in phototherapy for twelve days and free of palpable tumor in 100% of male Fischer CDF (F-344)/CrlBr rats
Rattus norvegicus [2] = species: Rattus norvegicus; assay: Dose required in phototherapy for twelve days in tumor size detected in male Fischer CDF (F-344)/CrlBr rats; format: functional
Rattus norvegicus [3] = species: Rattus norvegicus; assay: Compound evaluated for cytotoxicity in male Fischer CDF (F-344)/CrlBr rats; format: functional
Rattus norvegicus [4] = species: Rattus norvegicus; assay: Dose required in phototherapy for twelve days and 73% control in tumor size in male Fischer CDF (F-344)/CrlBr rats; format: functional
Rattus norvegicus [5] = species: Rattus norvegicus; assay: Dose required in phototherapy for twelve days and palpable tumor detected in 50% of male Fischer CDF (F-344)/CrlBr rats; format: functional

With CCC1=C(C)c2cc3[nH]c(cc4nc(cc5[nH]c(cc1n2)C1(C)C5=CCC(C(=O)OC)=C1C(=O)OC)C(C)=C4CC)c(C)c3CC (stereo unspecified) the Dose (Rattus norvegicus [1]) was 1 mg/kg.

With C=Cc1c(C)c2cc3nc(cc4nc(cc5[nH]c(cc1[nH]2)C1(C)C5=CCC(C(=O)OC)=C1C(=O)OC)C(C)=C4CCC(=O)OC)C(CCC(=O)OC)=C3C (stereo unspecified) the Dose (Rattus norvegicus [2]) was 5 mg/kg.

Work on CCC1=C(CC)c2cc3[nH]c(cc4nc(cc5[nH]c(cc1n2)C1=CCC(C#N)(C#N)C(C#N)(C#N)C15CC)C(CC)=C4CC)c(CC)c3CC (stereo unspecified) yielded a Dose (Rattus norvegicus [3]) of 1 mg/kg.

C=Cc1c(C)c2cc3nc(cc4nc(cc5[nH]c(cc1[nH]2)C1(C)C5=CCC(C#N)(C#N)C1(C#N)C#N)C(C)=C4CCC(=O)OC)C(CCC(=O)OC)=C3C (stereo unspecified) was tested, and the Dose (Rattus norvegicus [4]) was 1 mg/kg.

For CCC1=C(CC)c2cc3[nH]c(cc4nc(cc5[nH]c(cc1n2)C1=CCC(C(=O)OC)=C(C(=O)OC)C15CC)C(CC)=C4CC)c(CC)c3CC (stereo unspecified), the Dose (Rattus norvegicus [5]) was 1 mg/kg.

CCC1=C(C)c2cc3[nH]c(cc4[nH]c(cc5nc(cc1n2)C(C)=C5CC)C1(C)C4=CCC(C#N)(C#N)C1(C#N)C#N)c(C)c3CC (stereo unspecified) gave a Dose (Rattus norvegicus [3]) of 1 mg/kg.
